Experimental data: patent US20050113253A1, “Fertilizer” (priority 2003, published 2005)

Assays:
[1] = Solubility of prodiamine in N-methyl pyrrolidone liquid carrier; format: physicochemical; conditions: N-methyl pyrrolidone as liquid carrier; heating and gentle mixing
Source text: For example, when N-methyl pyrrolidone is used as the liquid carrier for prodiamine, concentrations of 50 wt. % or more can be easily achieved by heating and gentle mixing. For convenience, however, concentrations on the order of 10 to 50 wt. %, and especially about 30 to 40 wt. %, are appropriate.
A mixture of 37.6 wt. % Prodiamine Technical Grade Herbicide (94.8% active) obtained from SipCam Aro USA of Roswell, Ga., and 62.4 wt. % M-Pyrol (N-methyl pyrrolidone) solvent obtained from ISP Technologies, Inc., of Wayne, N.J., was heated to about 75° C. (about 165° F.) with mechanical stirring until the prodiamine completely dissolved. The composition so obtained was then allowed to cool to ambient and then sprayed onto a moving bed of particulate fertilizer composed of a mixture of different fertilizer ingredients having particle sizes ranging from 4.75 to 1.18 mm, a combined bulk density of 0.92 gms/cc and containing about 24% nitrogen, 5% phosphorous and 11% potassium, measured as units of total nitrogen (N), available phosphate (P2O5) and soluble potash (K2O).

[2] = also printed as 187° F.; cited from earlier work

Structure (SMILES) | concentration achievable (dissolved) in N-methyl pyrrolidone [1] | flash point [2]
CCCN(CCC)c1c([N+](=O)[O-])cc(C(F)(F)F)c(N)c1[N+](=O)[O-] [prodiamine, 2,4-dinitro-N^3,N^3-di-n-propyl-6-(trfluoromethyl)-1,3-benzenediamine] | ≥ 50 wt. % | 
CN1CCCC1=O [N-methyl pyrrolidone] |  | ~86 °C
